Source: ChEMBL document CHEMBL3638647, “Compounds useful as inhibitors of ATR kinase” (2014)

Biological target: Serine/threonine-protein kinase ATR (Homo sapiens, UniProt Q13535)
Test: Inhibition Assay: Compounds were screened for their ability to inhibit ATR kinase using a radioactive-phosphate incorporation assay. Assays were carried out in a mixture of 50 mM Tris/HCl (pH 7.5), 10 mM MgCl2 and 1 mM DTT. Final substrate concentrations were 10 Î¼M [Î³-33P]ATP (3mCi 33P ATP/mmol ATP, Perkin Elmer) and 800 Î¼M target peptide (ASELPASQPQPFSAKKK).Assays were carried out at 25° C. in the presence of 5 nM full-length ATR. An assay stock buffer solution was prepared containing all of the reagents listed above, with the exception of ATP and the test compound of interest. 13.5 Î¼L of the stock solution was placed in a 96 well plate followed by addition of 2 Î¼L of DMSO stock containing serial dilutions of the test compound (typically starting from a final concentration of 15 Î¼M with 3-fold serial dilutions) in duplicate (final DMSO concentration 7%). The plate was pre-incubated for 10 minutes at 25° C. and the reaction initiated by addition of 15 Î¼L [Î³-33P]ATP.

Chain of Serine/threonine-protein kinase ATR (Q13535 whole entry): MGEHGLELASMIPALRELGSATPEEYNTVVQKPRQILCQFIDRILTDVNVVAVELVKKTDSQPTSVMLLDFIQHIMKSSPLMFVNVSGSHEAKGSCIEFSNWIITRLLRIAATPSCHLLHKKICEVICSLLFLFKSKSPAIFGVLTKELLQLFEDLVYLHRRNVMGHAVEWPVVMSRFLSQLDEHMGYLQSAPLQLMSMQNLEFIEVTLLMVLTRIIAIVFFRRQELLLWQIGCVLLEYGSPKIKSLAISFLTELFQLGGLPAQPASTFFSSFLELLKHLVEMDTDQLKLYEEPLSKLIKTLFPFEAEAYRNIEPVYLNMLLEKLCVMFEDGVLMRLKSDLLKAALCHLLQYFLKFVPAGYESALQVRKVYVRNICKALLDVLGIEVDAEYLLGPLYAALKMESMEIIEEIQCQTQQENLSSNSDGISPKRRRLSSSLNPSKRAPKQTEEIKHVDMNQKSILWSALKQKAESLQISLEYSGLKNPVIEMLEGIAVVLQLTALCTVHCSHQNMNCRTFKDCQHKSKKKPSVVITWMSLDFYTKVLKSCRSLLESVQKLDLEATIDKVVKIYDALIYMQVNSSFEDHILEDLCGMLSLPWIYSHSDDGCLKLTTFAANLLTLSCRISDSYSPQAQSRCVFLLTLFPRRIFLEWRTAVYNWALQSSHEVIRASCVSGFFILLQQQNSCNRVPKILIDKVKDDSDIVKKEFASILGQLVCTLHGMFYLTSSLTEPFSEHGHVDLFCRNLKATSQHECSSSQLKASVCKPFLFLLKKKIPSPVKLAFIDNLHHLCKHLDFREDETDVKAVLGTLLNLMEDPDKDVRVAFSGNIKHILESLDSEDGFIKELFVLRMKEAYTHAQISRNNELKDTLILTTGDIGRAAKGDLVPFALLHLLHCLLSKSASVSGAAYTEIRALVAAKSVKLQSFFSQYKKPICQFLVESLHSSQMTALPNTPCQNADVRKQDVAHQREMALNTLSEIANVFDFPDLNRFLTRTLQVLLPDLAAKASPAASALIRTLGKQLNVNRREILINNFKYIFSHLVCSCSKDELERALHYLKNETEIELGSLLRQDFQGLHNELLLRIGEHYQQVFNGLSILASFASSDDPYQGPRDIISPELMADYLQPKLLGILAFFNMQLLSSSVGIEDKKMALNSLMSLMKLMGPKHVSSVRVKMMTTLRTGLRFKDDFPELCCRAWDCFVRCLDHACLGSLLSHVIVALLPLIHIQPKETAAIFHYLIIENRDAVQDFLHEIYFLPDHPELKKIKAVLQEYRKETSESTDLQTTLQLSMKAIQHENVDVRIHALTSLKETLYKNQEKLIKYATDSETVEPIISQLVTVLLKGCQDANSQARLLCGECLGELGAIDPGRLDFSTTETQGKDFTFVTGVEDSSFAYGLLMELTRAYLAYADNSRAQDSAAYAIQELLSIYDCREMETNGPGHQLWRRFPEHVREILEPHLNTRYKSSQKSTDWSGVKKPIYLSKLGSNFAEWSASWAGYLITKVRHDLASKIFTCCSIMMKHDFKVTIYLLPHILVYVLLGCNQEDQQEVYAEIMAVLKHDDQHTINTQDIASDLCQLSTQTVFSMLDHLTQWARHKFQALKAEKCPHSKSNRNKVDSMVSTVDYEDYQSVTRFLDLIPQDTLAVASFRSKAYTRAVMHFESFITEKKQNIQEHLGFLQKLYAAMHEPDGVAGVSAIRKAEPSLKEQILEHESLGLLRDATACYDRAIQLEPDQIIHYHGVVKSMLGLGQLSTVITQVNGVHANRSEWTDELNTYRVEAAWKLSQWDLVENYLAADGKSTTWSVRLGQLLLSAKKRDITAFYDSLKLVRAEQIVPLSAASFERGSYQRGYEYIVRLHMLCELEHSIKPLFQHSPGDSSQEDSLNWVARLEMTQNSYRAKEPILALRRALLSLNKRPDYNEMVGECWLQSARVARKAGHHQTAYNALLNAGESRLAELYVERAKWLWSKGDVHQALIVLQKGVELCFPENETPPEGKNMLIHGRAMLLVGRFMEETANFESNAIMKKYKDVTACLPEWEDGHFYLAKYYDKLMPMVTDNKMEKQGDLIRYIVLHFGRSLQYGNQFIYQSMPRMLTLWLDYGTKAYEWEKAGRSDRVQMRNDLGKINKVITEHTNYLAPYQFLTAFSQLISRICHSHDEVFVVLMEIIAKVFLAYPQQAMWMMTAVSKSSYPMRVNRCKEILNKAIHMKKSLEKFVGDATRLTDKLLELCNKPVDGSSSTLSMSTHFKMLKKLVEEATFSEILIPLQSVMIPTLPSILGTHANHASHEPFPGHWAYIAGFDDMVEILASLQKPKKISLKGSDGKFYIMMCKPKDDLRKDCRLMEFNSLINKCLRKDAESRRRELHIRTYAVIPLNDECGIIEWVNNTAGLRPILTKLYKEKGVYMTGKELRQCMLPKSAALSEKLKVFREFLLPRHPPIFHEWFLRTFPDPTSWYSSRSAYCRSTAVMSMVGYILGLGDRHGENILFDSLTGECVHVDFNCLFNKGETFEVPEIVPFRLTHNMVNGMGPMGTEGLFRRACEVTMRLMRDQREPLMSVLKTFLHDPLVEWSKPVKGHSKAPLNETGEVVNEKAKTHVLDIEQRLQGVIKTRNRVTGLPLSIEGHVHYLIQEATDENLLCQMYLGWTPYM

Ki: 90 nM
Compound: CNCc1ccc(C2=NOC(c3nc(-c4ccc(S(=O)(=O)C(C)C)cc4)cnc3N)C2)cc1 (stereo unspecified)
